Laboratory results from the supplement of paper PMC10307832.

Assays:
Experiment in all cases: relative viability (nuclei count vs DMSO), 5 days (fraction); higher = more cells survive
SGI-1776 + Tozasertib = compound: CN1CCC(CNc2ccc3ncc(-c4cccc(OC(F)(F)F)c4)n3n2)CC1 [SGI-1776] + Cc1cc(Nc2cc(N3CCN(C)CC3)nc(Sc3ccc(NC(=O)C4CC4)cc3)n2)n[nH]1 [Tozasertib] (partner 0.1 µM)
Method in brief: (§1)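 For relative viability, nuclei counts in treated wells were divided by those in vehicle wells. Lung cancer cell lines had been pin-tool dosed in 1536-well plates the day after seeding and cultured for 5 days, then fixed and stained in one step (final 0.05% Triton X-100, 1% formaldehyde, 1 ug/ml Hoechst) and imaged at 4×. Doses were one drug alone or a fixed anchor-drug dose plus five library-drug doses (not always all listed) in √10 steps, and values are duplicate-plate medians.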

[1] = compound: C1COCCN1C2=NC(=NC3=C2OC4=C3C=CC=N4)C5=CC(=CC=C5)NC(=O)C6=CN=C(C=C6)N + COc1cccc2cc(-c3nc([C@H]4CC[C@H](C(=O)O)CC4)n4ncnc(N)c34)[nH]c12 [OSI-027] (partner 0.5 µM)
Method in brief: as §1

Entinostat + Vorinostat = compound: Nc1ccccc1NC(=O)c1ccc(CNC(=O)OCc2cccnc2)cc1 [Entinostat] + O=C(CCCCCCC(=O)Nc1ccccc1)NO [Vorinostat] (partner 1 µM)
Method in brief: as §1

Entinostat + Crizotinib = compound: Nc1ccccc1NC(=O)c1ccc(CNC(=O)OCc2cccnc2)cc1 [Entinostat] + C[C@@H](Oc1cc(-c2cnn(C3CCNCC3)c2)cnc1N)c1c(Cl)ccc(F)c1Cl [Crizotinib] (partner 1 µM)
Method in brief: as §1

Row | Cell Line | relative viability (SGI-1776 + Tozasertib; first compound 0.08 µM) | relative viability (SGI-1776 + Tozasertib; first compound 0.8 µM) | relative viability (SGI-1776 + Tozasertib; first compound 2.53 µM) | relative viability (SGI-1776 + Tozasertib; first compound 8 µM) | relative viability ([1]; first compound 0.02 µM) | relative viability ([1]; first compound 0.06325 µM) | relative viability ([1]; first compound 0.2 µM) | relative viability ([1]; first compound 0.6325 µM) | relative viability ([1]; first compound 2 µM) | relative viability (Entinostat + Vorinostat; first compound 0.02 µM) | relative viability (Entinostat + Vorinostat; first compound 0.06325 µM) | relative viability (Entinostat + Vorinostat; first compound 0.2 µM) | relative viability (Entinostat + Vorinostat; first compound 0.6325 µM) | relative viability (Entinostat + Vorinostat; first compound 2 µM) | relative viability (Entinostat + Crizotinib; first compound 0.02 µM) | relative viability (Entinostat + Crizotinib; first compound 0.06325 µM) | relative viability (Entinostat + Crizotinib; first compound 0.2 µM) | relative viability (Entinostat + Crizotinib; first compound 0.6325 µM) | relative viability (Entinostat + Crizotinib; first compound 2 µM)
1 | SW 900 | 0.693 | 0.608 | 0.467 | 0.222 | 0.759 | 0.492 | 0.43 | 0.467 | 0.357 | 0.634 | 0.485 | 0.476 | 0.376 | 0.264 |  |  |  |  | 
2 | NCI-H1944 | 0.247 | 0.252 | 0.253 | 0.226 | 0.401 | 0.439 | 0.366 | 0.345 | 0.272 | 0.59 | 0.576 | 0.452 | 0.307 | 0.246 | 0.971 | 0.756 | 0.629 | 0.344 | 0.249
3 | NCI-H838 | 0.262 | 0.265 | 0.195 | 0.213 | 0.348 | 0.381 | 0.348 | 0.31 | 0.278 | 0.784 | 0.688 | 0.667 | 0.458 | 0.257 | 0.995 | 0.818 | 0.949 | 0.536 | 0.229
4 | NCI-H1651 | 0.619 | 0.642 | 0.31 | 0.344 | 0.643 | 0.812 | 0.703 | 0.617 | 0.472 | 0.599 | 0.645 | 0.449 | 0.496 | 0.314 | 0.877 | 0.9 | 0.878 | 0.807 | 0.721
5 | HCC-827 | 0.448 | 0.369 | 0.422 | 0.359 | 0.769 | 0.851 | 0.72 | 0.684 | 0.487 | 0.988 | 0.879 | 0.631 | 0.62 | 0.287 | 0.868 | 0.889 | 0.699 | 0.559 | 0.384
6 | HCC-366 | 0.115 | 0.0741 | 0.0957 | 0.0418 | 0.82 | 1.04 | 0.68 | 0.537 | 0.352 | 0.338 | 0.239 | 0.209 | 0.0651 | 0.0386 | 0.447 | 0.407 | 0.283 | 0.0613 | 0.0249
7 | HARA | 0.18 | 0.101 | 0.0992 | 0.0856 | 0.52 | 0.609 | 0.381 | 0.391 | 0.283 | 0.541 | 0.482 | 0.329 | 0.324 | 0.182 | 1.02 | 1.02 | 1.05 | 0.974 | 0.565
8 | NCI-H441 | 0.604 | 0.437 | 0.216 | 0.297 | 0.588 | 0.511 | 0.507 | 0.58 | 0.327 | 0.695 | 0.61 | 0.465 | 0.261 | 0.161 | 0.715 | 0.744 | 0.523 | 0.215 | 0.181
9 | NCI-H1299 |  |  |  |  |  |  |  |  |  |  |  |  |  |  | 0.904 | 0.925 | 0.91 | 0.767 | 0.561
10 | RERF-LC-KJ | 0.473 | 0.412 | 0.235 | 0.225 | 0.558 | 0.594 | 0.558 | 0.458 | 0.462 | 0.68 | 0.665 | 0.578 | 0.381 | 0.25 | 0.844 | 0.75 | 0.754 | 0.431 | 0.233
11 | CAL-12T | 0.3 | 0.216 | 0.234 | 0.205 | 0.579 | 0.583 | 0.446 | 0.477 | 0.323 | 0.606 | 0.892 | 0.734 | 0.52 | 0.423 | 0.7 | 0.732 | 0.864 | 0.594 | 0.251
12 | COR-L 105 | 0.334 | 0.286 | 0.352 | 0.318 | 0.623 | 0.645 | 0.576 | 0.556 | 0.414 | 0.993 | 0.986 | 0.851 | 0.541 | 0.356 | 0.92 | 0.778 | 0.655 | 0.494 | 0.216
13 | NCI-H2405 | 0.711 | 0.484 | 0.353 | 0.314 | 0.578 | 0.668 | 0.618 | 0.599 | 0.585 | 1.23 | 1.02 | 0.979 | 0.693 | 0.42 | 0.85 | 0.887 | 0.906 | 0.805 | 0.598
14 | NCI-H2228 | 0.253 | 0.145 | 0.117 | 0.148 | 0.51 | 0.606 | 0.519 | 0.485 | 0.251 | 0.675 | 0.683 | 0.761 | 0.406 | 0.32 | 0.479 | 0.429 | 0.337 | 0.378 | 0.221
15 | PC-14 | 0.618 | 0.522 | 0.452 | 0.0803 | 0.976 | 1.2 | 0.977 | 0.554 | 0.233 | 0.689 | 0.668 | 0.615 | 0.147 | 0.0636 | 0.849 | 0.928 | 0.916 | 0.37 | 0.159
